# Reference: US20250177333A1, “METHOD FOR TREATING RHEUMATOID ARTHRITIS (RA) USING AN ENZYME-AND SUBSTRATE SELECTIVE EXOSITE INHIBITOR OF A DISINTEGRIN AND METALLOPROTEASE 10 (ADAM10)” (Nova Southeastern University, priority 2022, published 2025)
# Columns and labels:
# CXCL16 = test: Cell-based inhibition of CXCL16 shedding (responsible ADAM 10) in A549 cells; conditions: CXCL16, Human, 10 μM tested
# Source text: (§1) The instant inventor has discovered a conceptually novel class of ADAM10 inhibitors acting via a non-zinc-binding inhibition mechanism.
# ICOSL = test: Cell-based inhibition of ICOSL shedding (responsible ADAM 10) in B cells; conditions: Mouse, 10 μM tested
# Source text: as §1
# IL8-induced migration = test: Cell-based inhibition of IL8-induced migration of neutrophils (responsible ADAM 10); conditions: Human, 10 μM tested
# Source text: as §1
# [1] = PubChem database search; cited from earlier work
# ADAM17 [2] = target: T1, ADAM17 (Homo sapiens, UniProt P78536); test: ADAM17 counter-screen, HTS campaign and profiling; format: biochemical
# Source text: (§2) An ADAM10 non-Zn-binding inhibition approach overcomes drawbacks of Zn-binders. As shown by global knockout studies. ADAM10 is vital for development, homeostasis and repair, which makes global inhibition of all functions of this enzyme non-feasible as a therapeutic approach. […] In previous research, the instant inventor conducted a HTS campaign to identify inhibitors of ADAM10 and ADAM17. […] This was verified by profiling studies. An exceptional HTS hit, however, is CID3117694 and related compounds (FIG. 7). While it contains highly polar functionality, these groups are not typical Zn binders, such as the hydroxamic acid groups highlighted in LT4, INCB8765, and GI254023X. […] This new class of selective ADAMI0 inhibitors acts via a non-Zn-binding mechanism and that potentially bind outside of an active site at the hitherto unknown secondary substrate binding site (exosite).
# muscarinic (CHRM1) = target: T2, muscarinic (CHRM1) (Homo sapiens, UniProt P11229); conditions: PubChem; cited from earlier work
# T2 sequence (P11229 1-460): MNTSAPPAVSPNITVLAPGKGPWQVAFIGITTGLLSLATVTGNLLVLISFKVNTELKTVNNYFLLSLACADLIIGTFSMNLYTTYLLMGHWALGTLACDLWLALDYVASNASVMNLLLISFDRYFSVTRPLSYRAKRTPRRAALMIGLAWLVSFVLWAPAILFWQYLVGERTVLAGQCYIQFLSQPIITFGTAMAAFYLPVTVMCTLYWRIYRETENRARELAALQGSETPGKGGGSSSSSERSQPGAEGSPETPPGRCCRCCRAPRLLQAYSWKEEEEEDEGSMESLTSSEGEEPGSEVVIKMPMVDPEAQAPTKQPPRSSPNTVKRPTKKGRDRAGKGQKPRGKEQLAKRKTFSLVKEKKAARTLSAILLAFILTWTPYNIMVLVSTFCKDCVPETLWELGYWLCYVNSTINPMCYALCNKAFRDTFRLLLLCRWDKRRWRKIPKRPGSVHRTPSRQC
# [3] = test system: collagen-induced arthritis model; test: Collagen-induced arthritis (CIA) in vivo model; set-up: species or system rat
# Source text: FIG. 1 is a graph showing disease scores of rat collagen-induced arthritis model study of CID3117694. The disease score is used to assess severity of rheumatoid arthritis (RA) by measuring disease activity, functional impairment, and physical damage present. FIG. 2 is a graph showing paw swelling measurements of rat collagen-induced arthritis model study of CID3117694.* FIGS. 3A-F show micrographs of paw swelling observations of rat collagen-induced arthritis model study of CID3117694. […] The following scale was used: Score 0: normal: Score 1: one joint type (A, B or C) has redness and swelling: Score 2: Two joint types have redness and swelling: Score 3: all three joint types have redness and swelling; and Score 4: maximal redness and swelling of the entire paw leads to disappearance of anatomical definition. […] To test the efficacy of using ADAM10 inhibitor. CID3117694, for treatment of rheumatoid arthritis (RA), the instant inventor conducted a study using the […] Collagen-induced Arthritis (CIA) in vivo model. This model is a gold standard for RA pre-clinical studies of investigational drugs.
# opioid receptors (OPRK1) = opioid receptors (OPRK1) (Homo sapiens, UniProt P41145); conditions: PubChem; cited from earlier work
# ADAM10 [4] = target: T3, ADAM10 (Homo sapiens, UniProt O14672); conditions: PubChem AID 743338; cited from earlier work
# T3 sequence (O14672 214-748): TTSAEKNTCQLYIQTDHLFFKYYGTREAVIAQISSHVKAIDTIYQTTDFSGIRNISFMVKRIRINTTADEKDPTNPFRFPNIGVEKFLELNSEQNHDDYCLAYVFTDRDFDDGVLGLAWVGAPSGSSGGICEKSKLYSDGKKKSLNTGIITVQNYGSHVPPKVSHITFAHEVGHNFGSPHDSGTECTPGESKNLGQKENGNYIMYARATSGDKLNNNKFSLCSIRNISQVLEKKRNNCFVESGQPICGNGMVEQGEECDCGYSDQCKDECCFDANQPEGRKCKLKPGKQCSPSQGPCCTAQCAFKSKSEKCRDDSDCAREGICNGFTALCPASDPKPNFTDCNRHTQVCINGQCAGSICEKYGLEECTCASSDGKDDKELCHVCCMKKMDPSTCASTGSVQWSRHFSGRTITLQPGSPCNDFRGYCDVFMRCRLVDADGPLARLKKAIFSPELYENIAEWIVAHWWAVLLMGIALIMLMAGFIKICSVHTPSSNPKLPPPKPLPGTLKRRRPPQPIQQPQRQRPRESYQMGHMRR
# [5] = Toxicity in cell-based assays
# Source text: as §1
# adrenergic (ADRB2) = adrenergic (ADRB2) (Homo sapiens, UniProt P07550); conditions: PubChem; cited from earlier work
# ADAM10 [6] = target: T3, ADAM10; test: ADAM10 inhibition, HTS campaign and profiling; format: biochemical
# Source text: as §2
# CCL2-induced = test: Cell-based inhibition of CCL2-induced migration of PBMC (responsible ADAM 10); conditions: Human, 10 μM tested
# Source text: as §1
# [7] = test system: broader panel of Zn metalloproteases; test: Profiling against broader panel of Zn metalloproteases; format: biochemical
# Source text: as §2
# opioid receptors (OPRD1) = opioid receptors (OPRD1) (Homo sapiens, UniProt P41143); conditions: PubChem; cited from earlier work
# opioid receptors (OPRM1) = opioid receptors (OPRM1) (Homo sapiens, UniProt P35372); conditions: PubChem; cited from earlier work
# ADAM17 [8] = target: T1, ADAM17; conditions: cited from earlier work
# ADAM10 [9] = target: T3, ADAM10; conditions: cited from earlier work
# T1 sequence (P78536 215-824, species assumed): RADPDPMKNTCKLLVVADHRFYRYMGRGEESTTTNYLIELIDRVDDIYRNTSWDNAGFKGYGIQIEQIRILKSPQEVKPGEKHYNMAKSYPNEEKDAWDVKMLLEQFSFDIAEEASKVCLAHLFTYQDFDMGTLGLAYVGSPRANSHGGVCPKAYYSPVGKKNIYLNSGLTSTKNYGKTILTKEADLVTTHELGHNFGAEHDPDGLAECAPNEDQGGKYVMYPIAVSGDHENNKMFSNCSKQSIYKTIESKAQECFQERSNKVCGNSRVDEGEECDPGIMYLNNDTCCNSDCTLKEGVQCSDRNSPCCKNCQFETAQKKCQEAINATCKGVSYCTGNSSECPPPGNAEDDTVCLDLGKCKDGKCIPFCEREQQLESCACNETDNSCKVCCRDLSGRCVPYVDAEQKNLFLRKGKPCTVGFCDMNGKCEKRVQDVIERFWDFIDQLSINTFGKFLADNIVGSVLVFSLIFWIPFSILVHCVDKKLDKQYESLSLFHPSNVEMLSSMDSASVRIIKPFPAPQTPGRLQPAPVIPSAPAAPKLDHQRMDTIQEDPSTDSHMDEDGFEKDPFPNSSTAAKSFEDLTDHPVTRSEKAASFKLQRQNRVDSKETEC
# Chain of opioid receptors (OPRD1) (P41143 whole entry, species assumed): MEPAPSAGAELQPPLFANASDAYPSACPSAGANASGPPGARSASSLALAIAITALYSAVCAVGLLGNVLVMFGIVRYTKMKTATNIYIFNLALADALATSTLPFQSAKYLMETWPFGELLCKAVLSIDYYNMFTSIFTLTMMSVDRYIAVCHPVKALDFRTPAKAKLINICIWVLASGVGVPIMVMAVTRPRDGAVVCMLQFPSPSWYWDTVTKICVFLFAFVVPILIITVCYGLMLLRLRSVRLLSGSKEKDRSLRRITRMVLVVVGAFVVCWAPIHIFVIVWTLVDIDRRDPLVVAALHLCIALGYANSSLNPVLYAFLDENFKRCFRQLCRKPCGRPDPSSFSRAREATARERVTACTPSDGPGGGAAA
# Chain of opioid receptors (OPRK1) (P41145 whole entry, species assumed): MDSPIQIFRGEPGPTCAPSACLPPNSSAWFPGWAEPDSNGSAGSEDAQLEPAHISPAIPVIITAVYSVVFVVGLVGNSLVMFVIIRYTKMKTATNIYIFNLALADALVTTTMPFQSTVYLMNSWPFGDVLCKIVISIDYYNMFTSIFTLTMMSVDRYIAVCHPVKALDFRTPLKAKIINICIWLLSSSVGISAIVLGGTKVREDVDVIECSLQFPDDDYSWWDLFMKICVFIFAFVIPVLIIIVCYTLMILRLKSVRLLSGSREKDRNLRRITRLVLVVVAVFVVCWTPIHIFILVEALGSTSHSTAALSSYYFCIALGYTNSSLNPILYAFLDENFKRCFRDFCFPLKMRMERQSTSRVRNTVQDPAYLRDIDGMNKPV
# Chain of opioid receptors (OPRM1) (P35372 whole entry, species assumed): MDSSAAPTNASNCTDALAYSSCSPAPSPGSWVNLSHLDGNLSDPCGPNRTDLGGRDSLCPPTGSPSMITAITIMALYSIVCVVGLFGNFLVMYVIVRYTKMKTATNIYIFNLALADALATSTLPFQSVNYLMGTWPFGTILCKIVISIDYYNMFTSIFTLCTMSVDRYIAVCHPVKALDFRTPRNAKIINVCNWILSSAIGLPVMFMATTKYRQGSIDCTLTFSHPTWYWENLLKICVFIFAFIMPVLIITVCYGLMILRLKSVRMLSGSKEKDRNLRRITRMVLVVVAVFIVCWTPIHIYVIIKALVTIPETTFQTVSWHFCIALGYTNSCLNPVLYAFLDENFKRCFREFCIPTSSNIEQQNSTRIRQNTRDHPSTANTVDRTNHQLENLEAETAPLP
# Chain of adrenergic (ADRB2) (P07550 whole entry, species assumed): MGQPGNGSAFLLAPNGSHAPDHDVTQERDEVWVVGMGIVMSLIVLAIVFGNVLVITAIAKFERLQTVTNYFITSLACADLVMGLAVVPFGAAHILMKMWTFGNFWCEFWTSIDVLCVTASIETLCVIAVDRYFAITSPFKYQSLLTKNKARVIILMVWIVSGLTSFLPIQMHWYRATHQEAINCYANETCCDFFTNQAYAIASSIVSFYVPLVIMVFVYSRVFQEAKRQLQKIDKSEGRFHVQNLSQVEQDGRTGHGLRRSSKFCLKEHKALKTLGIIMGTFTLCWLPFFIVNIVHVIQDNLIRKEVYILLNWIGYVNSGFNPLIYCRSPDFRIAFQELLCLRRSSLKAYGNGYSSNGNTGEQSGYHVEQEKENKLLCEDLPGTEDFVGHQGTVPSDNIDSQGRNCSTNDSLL
compound,measurement,setting,value
"COc1cccc(C(=O)NNC(=O)C(=O)Nc2ccc(C)c(Cl)c2)c1 [CID3117694, N-(3-chloro-4-methylphenyl)-2-[2-(3-methoxybenzoyl) hydrazinyl]-2-oxoacetamide]",% Inhibition,CXCL16,80%
same,% Inhibition,ICOSL,95%
same,% Inhibition,IL8-induced migration,100%
same,biological activity across PubChem bioassays,[1],inactive in 524 bioassays and active only against 3 targets
same,affinity for ADAM17,ADAM17 [2],negligible affinity
same,activity against CHRM1,muscarinic (CHRM1),inactive
same,RA disease score,[3]; FIG. 1,dose-dependently lowers
same,paw swelling,"[3]; FIG. 2 measurement, FIGS. 3A-F observation",dose-dependently lowers
same,serum levels of RA biomarker C-reactive protein,[3]; FIG. 4,dose-dependently decreases
same,serum levels of RA biomarker Interleukin-6 (IL-6),[3]; FIG. 5,dose-dependently decreases
same,serum levels of RA biomarker Interleukin-10 (IL-10),[3]; FIG. 6,dose-dependently decreases
same,histopathology of right hind paws,"[3]; G4, CIA+Test Comp 10 mg Kg",Synovial inflammation: Capital H: Hyperplasia: Capital P: Pannus Formation: Capital IEJ: Inflamed & eroded joint
same,histopathology of right hind paws,"[3]; G5, CIA+Test Comp 30 mg Kg",Synovial inflammation: Capital H: Hyperplasia
same,histopathology of right hind paws,"[3]; G6, CIA+Test Comp 50 mg Kg",Normal healthy bone & cartilage of arthritis joint: Capital H: Hyperplasia. Capital SI: Synovial inflammation
same,activity against OPRK1,opioid receptors (OPRK1),inactive
same,activity in PubChem bioassay,ADAM10 [4],active
same,toxicity in cell-based assays,[5],lack of toxicity
same,activity against ADRB2,adrenergic (ADRB2),inactive
same,ADAM10 inhibitory potency,ADAM10 [6],micromolar-potent
same,% Inhibition,CCL2-induced,50%
same,affinity for a broader panel of Zn metalloproteases,[7],negligible affinity
same,activity against OPRD1,opioid receptors (OPRD1),inactive
same,activity against OPRM1,opioid receptors (OPRM1),inactive
CNC(=O)[C@@H](NC(=O)[C@H](CCCc1ccccc1)[C@H](C)N(O)C=O)C(C)(C)C [GI 254023X],IC50,ADAM17 [8],541 nM
same,IC50,ADAM10 [9],5.3 nM
O=C(NO)[C@H]1C[C@H](OC(=O)N2CCCC2)CC[C@@H]1C(=O)N1CCC(c2ccccc2)CC1 [INCB8765],IC50,ADAM17 [8],2040 nM
same,IC50,ADAM10 [9],97 nM
"COc1ccc2c(c1)c(CC(=O)O)c(C)n2C(=O)c1ccc(Cl)cc1 [Indomethacin, indomethacin, reference compound]",histopathology of right hind paws,"[3]; G3, CIA+Indomethacin 2.5 mg Kg",Normal Morphology of bone & cartilage of arthritis joint: Capital SI: Synovial inflammation: Capital H: Hyperplasia
